This is an account of results in US20030219400A1 (priority 2002, published 2003).

One series has as its system PLDS patients. Type of series: in vivo, human. On the procedure: An orally administered checklist monitored symptoms; sequential VCS testing was performed. […] No antibiotics or other therapeutic interventions were administered during the study. Diagnostic parameters used by referring physicians included a history of erythema chronicum migrans (ECM) rash, ELISA assay, Borrelia burgdorferi Western blot, LUAT assay, PCR, CSF antibodies to B. burgdorferi and culture. Patients with a clinical diagnosis of PLDS but without a positive serologic test were included at the discretion of the attending physician.

Series [1] relates to macrophage release of pro-inflammatory cytokines, including TNF and IL1B. To be noted: intraventricular instillation; cited from earlier work.
The next series deals with SBS patients. The settings on record: human, in vivo.

`CCc1ccc(CCOc2ccc(CC3SC(=O)NC3=O)cc2)nc1` (stereo not shown) [pioglitazone]: in the series on PLDS patients (45 mg daily for 10 days), the “adverse effects from pioglitazone, including hypoglycemia or abnormal liver function tests” value is reported as “No patients had adverse effects”. The “patients with significant intensification of symptoms, not severe enough to stop treatment” value in the series on PLDS patients (of 241 patients receiving pioglitazone, CSM added on day 6) was 5 patients. Turning to “Ser-Tyr-Ser-Met-Glu-His-Phe-Arg-Trp-Gly-Lys-Pro-Val [αMSH]”, the “macrophage release of pro-inflammatory cytokines, including TNF and IL1B” value in series [1] is on record as “down-regulation of macrophage release of pro-inflammatory cytokines”. For the molecule cholestyramine [CSM], the “other complications of therapy” value with SBS patients is “No other significant complications of therapy were noted”.
